This experiment deals with P388 leukemia ip, CD2F1 mice, survival T/C. Briefly: NCI In Vivo Anticancer Drug Screen. Data for tumor model P388 Leukemia (intraperitoneal) in CD2F1 (CDF1) mice. To be noted: endpoint: median survival time, higher = longer survival. The gist of the method:
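Mice carrying the transplanted tumor received test compound or vehicle. Survival was recorded in each group, and the value is the treated-group measurement divided by that of the vehicle-treated control group.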

Where [1] appears, read: dose: 50.0 mg/kg/injection, schedule: Q01DX005 (ip), vehicle: Klucel (hydroxypropylcellulose) (HPC).
The mark [2] stands for this setting: dose: 100.0 mg/kg/injection, schedule: Q01DX005 (ip), vehicle: Klucel (hydroxypropylcellulose) (HPC).
Where [3] appears, read: dose: 200.0 mg/kg/injection, schedule: Q01DX005 (ip), vehicle: Klucel (hydroxypropylcellulose) (HPC).
The mark [4] stands for this setting: dose: 50.0 mg/kg/injection, schedule: Q01DX009 (ip), vehicle: Klucel (hydroxypropylcellulose) (HPC).
[5] abbreviates: dose: 100.0 mg/kg/injection, schedule: Q01DX009 (ip), vehicle: Klucel (hydroxypropylcellulose) (HPC).
Where [6] appears, read: dose: 50.0 mg/kg/injection, schedule: Q01DX005 (ip), vehicle: saline with Tween-80.
Setting [7] is: dose: 100.0 mg/kg/injection, schedule: Q01DX005 (ip), vehicle: saline with Tween-80.
Setting [8] is: dose: 200.0 mg/kg/injection, schedule: Q01DX005 (ip), vehicle: saline with Tween-80.
[9] abbreviates: dose: 200.0 mg/kg/injection, schedule: Q01DX009 (ip), vehicle: Klucel (hydroxypropylcellulose) (HPC).
The mark [10] stands for this setting: dose: 25.0 mg/kg/injection, schedule: Q01DX005 (ip), vehicle: Klucel (hydroxypropylcellulose) (HPC).

Values joined by “and” are separate entries in the source; they are usually repeats but may differ in a detail not shown here. Identical values can stand only once. Inconclusive results and toxic doses are left out. Peptide text beside a SMILES is read from it. * marks the point of attachment. Trt = c1ccc(C(c2ccccc2)(c2ccccc2)*)cc1; Benzhydryl = c1ccc(C(c2ccccc2)*)cc1; Cbz = O=C(OCc1ccccc1)*

For the compound `C=COC(=O)CCCCCCCC`, the T/C is 103 % of control (dose: 100.0 mg/kg/injection, schedule: Q04DX003 (ip), vehicle: Klucel (hydroxypropylcellulose) (HPC)); 105 % of control (dose: 200.0 mg/kg/injection, schedule: Q04DX003 (ip), vehicle: Klucel (hydroxypropylcellulose) (HPC)); 95 % of control (dose: 400.0 mg/kg/injection, schedule: Q04DX003 (ip), vehicle: Klucel (hydroxypropylcellulose) (HPC)).

`O=C(Nc1ccccc1C1=NCCN1)c1ccc(C(=O)Nc2ccccc2C2=NCCN2)cc1`: the T/C runs as follows: under setting [1], 96 % of control; under setting [2], 87 % of control; under setting [3], 91 % of control.

Turning to `CCCCN(CCCC)C(=O)C(C)OC(C)=O` (stereo not drawn), the T/C runs as follows: (dose: 25.0 mg/kg/injection, schedule: Q01DX005 (ip), vehicle: saline) 95 % of control; (dose: 50.0 mg/kg/injection, schedule: Q01DX005 (ip), vehicle: saline) 95 % of control; (dose: 100.0 mg/kg/injection, schedule: Q01DX005 (ip), vehicle: saline) 108 % of control; (dose: 200.0 mg/kg/injection, schedule: Q01DX005 (ip), vehicle: saline) 105 % of control.

`Cc1cc(=O)n(C)c2ccc(N)cc12`: the T/C (dose: 25.0 mg/kg/injection, schedule: Q01DX009 (ip), vehicle: Klucel (hydroxypropylcellulose) (HPC)) is 101 % of control; the T/C under setting [4] was 100 % of control; the T/C under setting [5] is 101 % of control.

On to `CCN(CC)C1=C/CC/C(c2ccccc2)=N/N=C\1c1ccccc1`, for which the T/C (dose: 60.0 mg/kg/injection, schedule: Q01DX005 (ip), vehicle: Klucel (hydroxypropylcellulose) (HPC)) is 89 % of control; the T/C (dose: 120.0 mg/kg/injection, schedule: Q01DX005 (ip), vehicle: Klucel (hydroxypropylcellulose) (HPC)) was 95 % of control; the T/C (dose: 240.0 mg/kg/injection, schedule: Q01DX005 (ip), vehicle: Klucel (hydroxypropylcellulose) (HPC)) was 97 % of control.

Consider `C/C(=N\NC(=S)Nc1nccs1)c1ccc2ccccc2n1`, for which the T/C is 102 % of control under setting [6], 100 % of control under setting [7] and 113 % of control under setting [8].

For the compound `CCN(CC)c1c(C)c(-c2ccccc2)oc(=O)c1Cl`, the T/C under setting [6] was 100 % of control, the T/C under setting [7] was 100 % of control and the T/C under setting [8] was 115 % of control.

As for `OCC1OC(Oc2ccc3cc(Br)ccc3c2)C(O)C1O` (stereo not drawn), the T/C was 90 % of control under setting [4], 99 % of control under setting [5] and 97 % of control under setting [9].

For `COc1cc2c(cc1OC)C1CC(OC(=O)c3ccccc3)(c3nccc4cc(OC)c(OC)cc34)CCN1CC2` (stereo not drawn), the T/C (dose: 12.5 mg/kg/injection, schedule: Q01DX009 (ip), vehicle: saline with Tween-80) was 97 % of control; the T/C (dose: 25.0 mg/kg/injection, schedule: Q01DX009 (ip), vehicle: saline with Tween-80) is 93 % of control; the T/C (dose: 50.0 mg/kg/injection, schedule: Q01DX009 (ip), vehicle: saline with Tween-80) is 95 % of control and 97 % of control.

Turning to `N#Cc1cnc2nc1NCCCCCCC2`, the T/C by setting is: (dose: 25.0 mg/kg/injection, schedule: Q04DX003 (ip), vehicle: saline with Tween-80) 105 % of control; (dose: 50.0 mg/kg/injection, schedule: Q04DX003 (ip), vehicle: saline with Tween-80) 98 % of control; (dose: 100.0 mg/kg/injection, schedule: Q04DX003 (ip), vehicle: saline with Tween-80) 100 % of control.

For the compound `CCOc1cc(/C=N/NC(=O)N(c2ccccc2)c2ccccc2)ccc1O`, the T/C was 88 % of control under setting [6] and 88 % of control under setting [7].

Consider `CCOC(=O)c1sc(=S)n(CC)c1C`, for which the T/C under setting [6] was 107 % of control and the T/C under setting [7] was 99 % of control.

For the compound `NC(N)=N/N=C/c1ccc(-c2cc3ccc(/C=N/N=C(N)N)cc3s2)cc1`, the T/C (dose: 12.5 mg/kg/injection, schedule: Q01DX005 (ip), vehicle: Klucel (hydroxypropylcellulose) (HPC)) was 114 % of control; the T/C under setting [10] is 116 % of control; the T/C under setting [1] was 121 % of control; the T/C under setting [2] is 118 % of control; the T/C under setting [3] was 107 % of control.

Turning to `CCC1(C)COC(=O)C1=C(C(=O)OC)C(=O)OC` (stereo not drawn), the T/C runs as follows: (dose: 100.0 mg/kg/injection, schedule: Q04DX003 (ip), vehicle: saline) 112 % of control; (dose: 200.0 mg/kg/injection, schedule: Q04DX003 (ip), vehicle: saline) 113 % of control; (dose: 400.0 mg/kg/injection, schedule: Q04DX003 (ip), vehicle: saline) 105 % of control.

For the compound `N#CC(c1ccccc1)c1nccc2ccccc12` (stereo not drawn), the T/C was 99 % of control (dose: 100.0 mg/kg/injection, schedule: Q04DX002 (ip), vehicle: saline with Tween-80) and 100 % of control (dose: 200.0 mg/kg/injection, schedule: Q04DX002 (ip), vehicle: saline with Tween-80).

In the case of `CC(=O)Nc1nc(Cl)c2[nH]cnc2n1`, the T/C under setting [10] was 98 % of control, the T/C under setting [1] is 98 % of control, the T/C under setting [2] is 102 % of control and the T/C under setting [3] was 112 % of control.

Turning to `COc1ccc(N=c2nc3n4c(c(Cl)cc(Cl)c4n2)NC(C(Cl)(Cl)Cl)=N3)cc1`, the T/C by setting is: (dose: 60.0 mg/kg/injection, schedule: Q01DX005 (ip), vehicle: Klucel + Tween-80) 93 % of control; (dose: 120.0 mg/kg/injection, schedule: Q01DX005 (ip), vehicle: Klucel + Tween-80) 92 % of control; (dose: 240.0 mg/kg/injection, schedule: Q01DX005 (ip), vehicle: Klucel + Tween-80) 96 % of control.

`CCCCCCCCCCCC(=O)/C=C/c1ccccc1`: the T/C by setting is: under setting [4], 102 % of control; under setting [5], 93 % of control; under setting [9], 94 % of control.

As to `COC(=O)C(Cc1ccccc1)NC(=O)C(Cc1ccccc1)NC(=O)CNC(=O)C(CSC(c1ccccc1)c1ccccc1)NC(=O)C(CSC(c1ccccc1)(c1ccccc1)c1ccccc1)NC(=O)OCc1ccccc1` (stereo not drawn) (Cbz-C(Trt)C(Benzhydryl)GFF-OMe; configuration not given here), the T/C reads like this: (dose: 100.0 mg/kg/injection, schedule: Q04DX002 (ip), vehicle: Klucel (hydroxypropylcellulose) (HPC)) 88 % of control; (dose: 200.0 mg/kg/injection, schedule: Q04DX002 (ip), vehicle: Klucel (hydroxypropylcellulose) (HPC)) 98 % of control; (dose: 400.0 mg/kg/injection, schedule: Q04DX002 (ip), vehicle: Klucel (hydroxypropylcellulose) (HPC)) 98 % of control.

On to `COc1cc2cc[n+]3c(C)c4ccc(OC)c(OC)c4cc3c2cc1OC` (tested in a mixture with another compound), for which the T/C runs as follows: (dose: 20.0 mg/kg/injection, schedule: Q01DX009 (ip), vehicle: saline) 150 % of control; (dose: 40.0 mg/kg/injection, schedule: Q01DX009 (ip), vehicle: saline) 154 % of control and 166 % of control.

Turning to `Cc1cccc(Nc2nnc(Nc3cccc(C)n3)c3ccccc23)n1`, the T/C under setting [6] is 95 % of control, the T/C under setting [7] is 91 % of control and the T/C under setting [8] is 92 % of control.
